Key:
[1] = test system: zebrafish adult hearts; assay: Heart regeneration after partial ventricular resection (cardiomyocyte proliferation index, Mef2+PCNA+); assay type: in vivo; details: 3 dpa; 0.125 mg/kg daily ip
Experimental: The pharmacological effect of aminosterol MSI-1436 administration on the regeneration of zebrafish adult hearts was tested using the same experimental paradigm described under the first study of example 1.
Adult zebrafish of 6-8 months old, were subjected to partial ventricular resection procedures followed by daily treatments with intraperitoneal microinjections of PBS (control) or squalamine or MSI-1436 at concentrations of 0.125 mg/kg. The ventricular resection procedures removed ˜20% of the ventricular apex of each heart and challenged each animal to regenerate new heart tissue. At three days post-amputation (3 dpa), hearts were extracted, fixed, cyrosectioned and stained with antibodies directed against Mef2 and PCNA. Cardiomyocyte proliferation indices were determined for each group by representing Mef2+PCNA+cells as a percent of total Mef2+cells within each heart. (*=Student's ttest p-value <0.05; error bars=SEM; n=4 per group).

[2] = test system: caudal fin blastema cells; assay: Proliferation of caudal fin blastema cells (H3P staining); assay type: in vivo, zebrafish; details: 4 dpa, vs control
Description: The zebrafish caudal fins from the control and MSI-1436 treated animals were extracted at four days post-amputation (4 dpa) and stained with an antibody directed against phosphorylated histone 3 (H3P) as a marker of cell proliferation. […] (Arrowheads highlight subset of H3P positive cells; * corresponds to Student's ttest p-value <0.001; error bars correspond to SEM; n corresponds to 6 fish per group).

[3] = test system: caudal fin of adult zebrafish; assay: Caudal fin regeneration after amputation in adult zebrafish; assay type: in vivo
Experimental: The purpose of this example was to evaluate the pharmacological effect of aminosterol MSI-1436 administration on the regeneration of the caudal or tail fins of zebrafish. Wildtype adult zebrafish were treated with MSI-1436 or squalamine or a control of phosphate buffered saline solution (PBS) over a four-day period via daily intraperitoneal microinjections. The adult zebrafish were bred and housed in the Yin laboratory at Mount Desert Island Biological Laboratory. The microinjections of PBS, squalamine and MSI-1436 were performed for the duration of the experiments at concentrations of 0.125 mg/kg which corresponds to 50 ng/300 mg body weight which translates to 5-200 mg per dose in humans. On average, a 5 ul volume of 10 ug/ml solution was delivered into each animal with a custom made 10 ul glass syringe (Hamilton part #80008).
The tail or caudal fins were amputated following the second day of intraperitoneal microinjections. These amputations were accomplished using a razor blade to remove approximately 50% of the caudal fins each in a manner perpendicular to the direction of bony ray growth. The zebrafish were maintained at standard conditions of 28° C. at all times during the experiments. At 4 days post-amputation (4 dpa) through 14 dpa, caudal fins were imaged with an Olympus MVX10 stereomicroscope and the length of regenerated tissue from the amputation plane was quantified using Adobe Photoshop.
(The dashed lines correspond to the amputation planes; the scale bar is 1 mm; * corresponds to the Student's ttest p-value <0.01; error bars correspond to SEM; n corresponds to 8-10 fish per group.) MSI-1436 stimulated appendage regeneration 2-fold four days after amputation (4 dpa), as shown in FIG. 2. […] In other words, the rate of regeneration was […] for those animals receiving MSI-1436 than for those receiving either phosphate buffered saline (PBS) or squalamine. Each of the experiments was conducted with at least 6 animals per group. […] FIG. 1 reflects the results of all four experiments.
Wildtype adult zebrafish were subjected to caudal fin amputation and treated daily with either control PBS or MSI-1436 as described above in the context of FIG. 1 for 14 consecutive days during regeneration. (Arrowhead=amputation plane; n=4-6 per group).

[4] = molecular target: T1, PTP1B (Homo sapiens, UniProt P18031); details: in vitro enzyme assay; cited from earlier work
T1 sequence (P18031 1-435): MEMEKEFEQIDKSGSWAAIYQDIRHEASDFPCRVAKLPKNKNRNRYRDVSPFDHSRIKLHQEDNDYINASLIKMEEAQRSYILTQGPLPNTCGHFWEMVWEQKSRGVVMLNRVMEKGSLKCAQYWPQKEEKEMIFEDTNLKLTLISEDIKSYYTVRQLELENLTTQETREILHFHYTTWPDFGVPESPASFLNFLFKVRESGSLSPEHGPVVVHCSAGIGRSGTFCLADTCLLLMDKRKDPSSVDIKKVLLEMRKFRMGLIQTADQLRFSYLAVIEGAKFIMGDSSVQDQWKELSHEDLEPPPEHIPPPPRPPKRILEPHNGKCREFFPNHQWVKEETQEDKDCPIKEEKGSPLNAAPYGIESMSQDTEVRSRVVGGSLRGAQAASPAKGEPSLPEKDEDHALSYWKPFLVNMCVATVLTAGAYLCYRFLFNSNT

[5] = test system: HIV; details: tissue culture; cited from earlier work
[6] = test system: hepatoma cells; details: cited from earlier work
[7] = test system: zebrafish adult hearts; assay: Rescue of let-7 miRNA depletion defect in heart regeneration (cardiomyocyte proliferation index); assay type: in vivo; details: 3 dpa
Description: To determine if MSI-1436 is capable of rescuing defects in heart regeneration, we microinjected antisense oligonucleotides to bind and remove activity of the let-7 family of small RNAs (miRNAs). Wildtype adult zebrafish were injured via the partial ventricular resection procedure described above and treated with either 1) control of PBS, 2) MSI-1436, 3) miRNA depletion, and 4) miRNA depletion and MSI-1436. At three days post-amputation (3 dpa), hearts were extracted and stained to detect Mef2+PCNA+cells. Cardiomyocyte proliferation indices were determined as a percent of Mef2+PCNA+cells within the total cardiomyocyte population in each heart. (*=Student's ttest p-value <0.05; error bars=SEM; n=8-12 hearts per group) The inclusion of MSI-1436 enhanced cardiomyocyte proliferation indices by 2-fold when compared to control hearts. Depletion of the let-7 family of miRNAs with antisense nucleotides inhibited cardiomyocyte proliferation index by approximately 45%.

[8] = test system: insulin receptor; details: mouse, with administration of insulin; cited from earlier work
[9] = test system: Normal, green monkey kidney cells; assay: Cellular proliferation of normal green monkey kidney cells; assay type: cell-based; details: 0.1 μg/ml or 1.0 μg/ml, two weeks
Experimental: This study was conducted to determine the effects of MSI-1436 on the cellular proliferation of normal, uninjured mammalian cells.
Normal, green monkey kidney cells were cultured with either control media of PBS or supplemented with 0.1 μg/ml or 1.0 μg/ml of MSI-1436. Growth media with and without MSI-1436 were replaced daily and total cell numbers were determined for each group over a period of 2-weeks.

With `CC(C)[C@@H](CC[C@@H](C)[C@H]1CC[C@H]2[C@@H]3[C@H](O)C[C@H]4C[C@@H](NCCCNCCCCNCCCN)CC[C@]4(C)[C@H]3CC[C@]12C)OS(=O)(=O)O` [MSI-1436] the “greater rate of heart regeneration, as quantified by cardiomyocyte proliferation indices, vs PBS or squalamine” value [1] was 2-3 fold, the “increase in cellular proliferation of blastema cells (H3P positive)” value [2] was 2 fold and the “anatomy of restored tail” value ([3]; 0.125 mg/kg daily ip) was “anatomically normal”. The “rate of regeneration greater than PBS or squalamine” value ([3]; 0.125 mg/kg daily ip) was 200%, the “overgrowth of regenerated tissue” value ([3]; 14 consecutive days of daily microinjections) was “did not display any overgrowth” and the “amount of regenerated tissue vs control” value ([3]; 14 days post-amputation (14 dpa)) was “same amount of regenerated tissue”. The “stimulation of appendage regeneration” value ([3]; four days after amputation (4 dpa), 0.125 mg/kg daily ip) was 2 fold, the PTP1B activity [4] was “inhibit the activity of PTP1B” and the “antiviral activity against HIV” value [5] was “exhibits antiviral activity against HIV”. The “phosphorylation of the insulin receptor” value [6] was “increase the level of phosphorylation of the insulin receptor”, the “enhancement of cardiomyocyte proliferation indices vs control hearts” value [7] was 2 fold and the “cardiomyocyte proliferation index in animals with miRNA depletion” value ([7]; miRNA depletion and MSI-1436) was “restored to wildtype control levels”. For the same compound, the “recovery of phosphorylated insulin receptor from the hypothalamus” value [8] was “increase in the recovery of phosphorylated insulin receptor from the hypothalamus”, the cellular proliferation plots ([9]; media replaced daily) was “normal growth curves” and the overgrowth or hyperproliferation [9] was “did not promote overgrowth or hyperproliferation”.

Source: US9504700B2, “Methods and compositions for stimulation and enhancement of regeneration of tissues” (MOUNT DESERT ISLAND BIOLOGICAL LABORATORY, priority 2012, dated 2016)
